{"source": "patent US5010076A", "about": "“1,7-fused 1H-indole-2-carboxylic acid-N-(1,4-benzodiazepin-3-yl)amides” (Kali-Chemie Pharma GmbH, priority 1989, dated 1991)", "key": {"[1]": {"system": "CCK-induced disturbance of stomach emptying", "experiment": "effect of test substances on CCK-induced disturbances of emptying of the stomach (charcoal transport into duodenum)", "type": "in vivo, mouse (female NMRI)", "protocol": "Doses of CCK lead to substantial blockade of the transpyloric transport of chyme from the stomach into the duodenum. The ability of the test substances to eliminate this blocking effect of CCK was investigated.\nFemale NMRI mice having body weights of 20-25 g were used in groups of ten animals each. […] A control group received only the Tylose® solution or the solution containing the solubilizer polyethylene glycol in each case. 60 minutes later the animals were given a subcutaneous injection of 80 Ig/kg CCK-8. After a further 5 minutes the animals were each orally administered 0.3 ml of a charcoal suspension (5% charcoal in 2% strength Tylose solution). The mice were sacrificed 5 minutes later and subsequently dissected. They were examined to find whether charcoal suspension had advanced into the duodenum.\nThe percentage of animals in which the CCK effect was eliminated and charcoal suspension was found in the duodenum after administration of the test substances was determined."}, "[2]": {"target": "T1, peripheral CCK receptors (pancreas) (Rattus norvegicus, UniProt P30551)", "T1 construct": "Whole pancreas glands from male Wistar rats with a body weight of 150-300 g; from tissue; host or cells: whole pancreas glands of male Wistar rats, washed homogenate", "T1 sequence (P30551 1-444)": "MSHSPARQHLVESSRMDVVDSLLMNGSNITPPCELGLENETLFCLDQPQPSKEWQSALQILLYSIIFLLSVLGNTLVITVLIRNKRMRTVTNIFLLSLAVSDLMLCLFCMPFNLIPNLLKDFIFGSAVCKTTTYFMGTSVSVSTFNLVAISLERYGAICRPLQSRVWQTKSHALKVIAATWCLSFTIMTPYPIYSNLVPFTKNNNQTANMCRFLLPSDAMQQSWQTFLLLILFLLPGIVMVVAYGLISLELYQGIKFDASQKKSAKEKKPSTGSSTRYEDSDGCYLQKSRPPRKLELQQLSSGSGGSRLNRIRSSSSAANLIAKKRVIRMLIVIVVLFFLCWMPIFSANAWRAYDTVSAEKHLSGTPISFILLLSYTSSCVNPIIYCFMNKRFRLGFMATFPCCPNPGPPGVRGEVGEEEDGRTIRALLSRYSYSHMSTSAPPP", "experiment": "peripheral CCK receptor binding affinity on rat pancreas homogenate (inhibition of 3[H]-CCK-8 binding)", "set-up": "species or system rat (male Wistar)", "settings": "0.3 nM 3[H]-CCK-8, 90 min, 25° C., pH 7.4, calculated from IC50 by Cheng-Prusoff, read-out: In vitro binding to peripheral CCK receptors (pancreas) pKi values (converted)", "protocol": "The affinity of the compounds of formula I for peripheral CCK receptors was measured in vitro on rat pancreas homogenate. The inhibition of the binding of the physiologically relevant octopeptide CCK-8 to peripheral CCK receptors by the test substances was determined.\nThe receptor binding studies were carried out by a modification of the method of van Dijk et al. (J. Neuroscience 4 (1984), 1021-1033), using soya bean trypsin inhibitor (=SBTI) as protease inhibitor. ^3 [H]-CCK-8, code TRK 775, from Amersham Int., having a specific activity of 60-90 Ci/mmol, was used as tritium-labelled CCK-8.\nWhole pancreas glands from male Wistar rats with a body weight of 150-300 g, which had been sacrificed by decapitation, were freed of fatty tissue and homogenized for 15 seconds in a 50-fold volume of an ice-cold test buffer solution (10 mmol 2-[4-(2-hydroxyethyl)-piperazin-1-yl]-ethanesulfonic acid (=HEPES), 130 mmol sodium chloride, 5 mmol magnesium chloride, 0.02% bacitracins, 0.01% SBTI, pH 7.4) with a Kinematica Polytron type homogenizer. The homogenates were then centrifuged at 48,000 g for 10 minutes. This washing method was repeated. After the last centrifugation, the residue which was obtained each time in the form of a pellet was suspended in a 550-fold volume of the test buffer solution and immediately used for the measurement.\nFor the binding test, 500 μl of the tissue homogenate were incubated with 50 μl of test buffer solution or 50 μl of a solution of the compound to be investigated and with 50 μl of a ^3 [H]-CCK-8 solution (final concentration 0.3 nM). The non-specific binding was assumed to be 0.1 μmol CCK-8. The incubation lasted 90 minutes at 25° C. All the compounds were measured 3 times at each of several concentrations.\nAqueous solutions were employed as test substance solutions and were prepared by appropriate dilution of 60×10^-4 molar aqueous stock solutions. Test substances which are sparingly soluble in water were first dissolved in 96% ethanol, and this solution was diluted with sufficient water for the ethanol concentration not to exceed 1.6% by volume in the solution to be tested.\nBound and free ^3 [H]-CCK-8 were separated by filtration through glass fiber filters. The filters were washed twice with 3 ml of HEPES solution each time and then placed in the scintillation solution (SAVE scintillation solution from Packard) in the dark overnight and counted in a Packard TriCarb 1500™liquid scintillation counter. The IC50 of the respective test substance was determined to be that concentration which caused a 50% inhibition of the specific binding of tritiated CCK-8 to the receptors. From this, the corresponding pKi value was calculated using the Cheng-Prusoff equation. […]"}, "[3]": {"experiment": "determination of the minimum toxic dose", "type": "in vivo, mouse (male)", "settings": "mouse, oral; lowest dose causing death or serious symptoms of toxicity; max 300 mg/kg; 24 h", "protocol": "Male mice weighing 20-25 g were given maximum oral doses of 300 mg/kg of the test substance. The animals were observed carefully for three hours for symptoms of toxicity. In addition, all symptoms and deaths were recorded for a period of 24 hours after administration. Concomitant symptoms were likewise observed and recorded. If death or serious symptoms of toxicity were observed, further mice were given increasingly lower doses. The lowest dose which caused death or serious symptoms of toxicity is indicated in the following Table A as the minimum toxic dose."}, "[4]": {"system": "CCK-induced gallbladder emptying", "experiment": "inhibitory effect of test substances on CCK-induced gallbladder emptying (gallbladder weight)", "type": "in vivo, mouse (female NMRI)", "protocol": "CCK causes a contraction of the muscles of the gallbladder and thus an emptying of the gallbladder. […] Intraperitoneal doses of 0.1 μg/kg CCK-8 may result in the weight of the gallbladders decreasing to about 1/10 of the original weight.\nFemale NMRI mice having a body weights of 20-25 g were used in groups of 10 animals each. After withdrawal of feed for 24 hours (drinking water ad libitum) the animals received an oral dose of the test substance suspended in a volume of 10 ml/kg of body weight of a 1% strength Tylose® solution (=methylcellulose) or in a volume of 10 ml/kg of body weight of a solubilizer solution which contained 5% glycerol, 87% polyethylene glycol 400, and 8% water. Two control groups each received only the Tylose® solution or the solution containing the solubilizer polyethylene glycol. One of the control groups and all the animals treated with test substance received 0.1 Ig/kg CCK-8 injected i.p. 60 minutes later.\nThe mice were sacrificed 5 minutes after the CCK-8 administration, and the gallbladders were excised and weighed.\nThe following Table C lists the percentage inhibition of the CCK-8 effect on gallbladder weights caused by the test substances."}, "[5]": {"settings": "dose 0.215 μmol/kg mouse oral, CCK-8 s.c. 60 min later"}, "[6]": {"settings": "dose 10 μmol/kg mouse oral, CCK-8 i.p. 60 min later"}, "[7]": {"settings": "dose 100 μmol/kg mouse oral, CCK-8 i.p. 60 min later"}, "[8]": {"settings": "dose 1.0 μmol/kg mouse oral, CCK-8 s.c. 60 min later"}}}
{"molecule": "COc1ccc2c(c1)N(C)C(=O)C(NC(=O)c1cc3cccc4c3n1CCC4)N=C2c1ccccc1", "note": "(stereo not drawn) [Example 1, 3-[(4H-Pyrrolo[3,2,1-ij]-5,6-dihydroquinoline-2-carbonyl)-amino]-8-methoxy-1-methyl-2-oxo-5-phenyl-1H-2,3-dihydro-1,4-benzodiazepine]", "values": [{"measurement": "% of Animals in which the CCK Effect was Eliminated", "setting": "[1]; [5]", "result": 50, "unit": "%"}, {"measurement": "Ki", "setting": "[2]", "result": 1.35, "unit": "nM"}, {"measurement": "Minimum toxic dose", "setting": "[3]", "result": "> 300", "unit": "mg/kg"}, {"measurement": "% Inhibition of CCK-induced Gallbladder Emptying", "setting": "[4]; dose 1 μmol/kg mouse oral, CCK-8 i.p. 60 min later", "result": "< 25", "unit": "%"}, {"measurement": "% Inhibition of CCK-induced Gallbladder Emptying", "setting": "[4]; [6]", "result": 66, "unit": "%"}]}
{"molecule": "CN1C(=O)C(NC(=O)c2cc3cccc4c3n2CCC4)N=C(c2ccccc2)c2ccccc21", "note": "(stereo not drawn) [Example 6, 3-[(4H-Pyrrolo[3,2,1-ij]-5,6-dihydroquinoline-2-carbonyl)-amino]-1-methyl-2-oxo-5-phenyl-1H-2,3-dihydro-1,4-benzodiazepine]", "values": [{"measurement": "% of Animals in which the CCK Effect was Eliminated", "setting": "[1]; dose 0.681 μmol/kg mouse oral, CCK-8 s.c. 60 min later", "result": 40, "unit": "%"}, {"measurement": "Ki", "setting": "[2]", "result": 3.24, "unit": "nM"}, {"measurement": "% Inhibition of CCK-induced Gallbladder Emptying", "setting": "[4]; [6]", "result": 73, "unit": "%"}]}
{"molecule": "COc1ccc2c(c1)N(C)C(=O)C(NC(=O)c1cc3cccc4c3n1CCC4)N=C2c1ccccc1F", "note": "(stereo not drawn) [Example 9]", "values": [{"measurement": "% of Animals in which the CCK Effect was Eliminated", "setting": "[1]; [5]", "result": 50, "unit": "%"}, {"measurement": "Ki", "setting": "[2]", "result": 0.794, "unit": "nM"}, {"measurement": "Minimum toxic dose", "setting": "[3]", "result": "> 300", "unit": "mg/kg"}, {"measurement": "% Inhibition of CCK-induced Gallbladder Emptying", "setting": "[4]; dose 4.6 μmol/kg mouse oral, CCK-8 i.p. 60 min later", "result": "< 25", "unit": "%"}, {"measurement": "% Inhibition of CCK-induced Gallbladder Emptying", "setting": "[4]; [7]", "result": 99, "unit": "%"}]}
{"molecule": "COc1ccc2c(c1)N(C)C(=O)C(NC(=O)c1cc3cccc4c3n1CCC4)N=C2c1ccc(F)cc1F", "note": "(stereo not drawn) [Example 15]", "values": [{"measurement": "% of Animals in which the CCK Effect was Eliminated", "setting": "[1]; [8]", "result": 57, "unit": "%"}, {"measurement": "% of Animals in which the CCK Effect was Eliminated", "setting": "[1]; dose 0.10* μmol/kg mouse oral, * = administered in solution containing solubilizer (PEG 400)", "result": 90, "unit": "%"}, {"measurement": "Ki", "setting": "[2]", "result": 1.23, "unit": "nM"}, {"measurement": "% Inhibition of CCK-induced Gallbladder Emptying", "setting": "[4]; [6]", "result": "< 25", "unit": "%"}, {"measurement": "% Inhibition of CCK-induced Gallbladder Emptying", "setting": "[4]; [7]", "result": 100, "unit": "%"}, {"measurement": "% Inhibition of CCK-induced Gallbladder Emptying", "setting": "[4]; dose 0.1* μmol/kg mouse oral, * = administered in solution containing solubilizer", "result": "< 25", "unit": "%"}]}
{"molecule": "CN1C(=O)C(NC(=O)c2cc3cccc4c3n2CCC4)N=C(c2c(F)cccc2F)c2ccccc21", "note": "(stereo not drawn) [Example 20]", "values": [{"measurement": "% of Animals in which the CCK Effect was Eliminated", "setting": "[1]; [8]", "result": 50, "unit": "%"}, {"measurement": "Ki", "setting": "[2]", "result": 0.851, "unit": "nM"}, {"measurement": "Minimum toxic dose", "setting": "[3]", "result": "> 300", "unit": "mg/kg"}, {"measurement": "% Inhibition of CCK-induced Gallbladder Emptying", "setting": "[4]; [6]", "result": 25, "unit": "%"}]}
{"molecule": "CN1C(=O)C(NC(=O)c2cc3cccc4c3n2CC4)N=C(c2ccccc2)c2ccccc21", "note": "(stereo not drawn) [Example 33]", "values": [{"measurement": "% of Animals in which the CCK Effect was Eliminated", "setting": "[1]; [8]", "result": 50, "unit": "%"}, {"measurement": "Ki", "setting": "[2]", "result": 3.72, "unit": "nM"}, {"measurement": "Minimum toxic dose", "setting": "[3]", "result": "> 300", "unit": "mg/kg"}, {"measurement": "% Inhibition of CCK-induced Gallbladder Emptying", "setting": "[4]; [6]", "result": 19, "unit": "%"}]}
